Results: patent publication US11491132B2, “Methods for treating thrombocytopenia” (Enzychem Lifesciences Corporation, priority 2014, dated 2022)

Assays:
[1] = test system: C3; assay: C3 expression in IL-4/TNF-α treated HMC-1 cells, RT-PCR; type: cell-based, human; details: HMC-1 cells treated with IL-4 and TNF-α; PLAG 0.1 and 1 μg/mL pre-treatment, or S6I
Method: A blood cell line, HMC-1 (human mast cell, American Type Culture Collection, ATCC, Rockville, Md.) is incubated and maintained at 37° C. under 5% CO2 humid conditions. The medium is IMDM (Life Technologies, Karlsruhe, Germany) containing 10% Fetal Calf Serum (FCS, HyClone, Logan, Utah), 2 mM […], 100 μg/ml penicillin, 100 μg/ml streptomycin (Life Technologies). The cultured HMC-1 cells (1×10^6 cell/ml) are pre-treated with 0.1 and 1 μg/mL concentration of PLAG, followed by treating with IL-4 (5 ng) and/or TNF-α (10 ng) to induce cellular activities.
The expressed C3 and its mRNA level change are observed by using RT-PCR (Reverse Transcriptase Polymerase Chain Reaction). The RT-PCR is carried out as follows: the total RNA is separated by the standard protocol and cDNA is synthesized using AccuScript High Fidelity 1st Strand cDNA Synthesis Kit (Stratagene) by the manufacturer's instructions. Two-step RT-PCR reaction is conducted using Oligo-dT primer and reverse transcriptase, pair of primer and Taq polymerase (Takara, Shiga, Japan). […] The product of PCR is separated using 1.5% agarose gel, dyed with ethidium bromide (EtBr), and visualized with Gel Doc 2000 UV trans-illuminator (Bio-Rad Laboratories, Hercules, Calif., USA), and the experimental data is analyzed using Quantity One software (Bio-Rad Laboratories).

[2] = test system: C3; assay: C3 expression in HepG2 cell line, RT-PCR of mRNA; type: cell-based, human; details: HepG2 cells, S6I 10 and 100 microgram/ml, relative to PLAG 1 and 10 microgram/ml
Method: A liver cell line, HepG2 (American Type Culture Collection, ATCC, Rockville, Md.), is incubated and maintained at 37° C., 5% CO2 humid atmosphere in DMEM medium. When HepG2 cells, which are known to produce complement in culture, are treated with PLAG, the activity of complement is reduced effectively, as confirmed by RT-PCR of mRNA. In the RT-PCR, 5×10^5 number of HepG2 cells/ml are distributed into 12 well plates and induced C3 for 12 hours with 10% FCS. Then PLAG is added and further cultured for 2 hours. Cells are harvested and mRNA is isolated and RT-PCR is carried out with specific primer of C3; GAPDH is used as an internal control.

[3] = test system: white blood cells and neutrophils; assay: PLAG in combination with G-CSF in cyclophosphamide-treated mouse model; type: in vivo, mice; details: cyclophosphamide 100 mpk i.p. ten days; G-CSF 0.25 mpk i.p.; PLAG 25 mpk p.o.
Text: Mice receive cyclophosphamide (100 mpk, i.p.) for a period of ten days, with or without G-CSF (0.25 mpk, i.p.) or G-CSF (0.25 mpk, i.p.) plus PLAG (25 mpk, p.o.): […]

NC(=O)c1cnc(NCCc2ccc(O)c(Cl)c2)nc1NCc1ccccc1 [S6I, reference compound]
expression of C3 [1]: suppresses expression of C3 | inhibition of C3 expression (RT-PCR) [2]: comparable

G-CSF: Granulocyte-colony stimulating factor, a glycoprotein that stimulates hematopoietic precursor cells in the bone marrow
Neutrophils [3]: 4.36 k/μl | White blood cells (WBCs) [3]: 5.37 k/μl
